# From US20080242726A1 (priority 2004, published 2008)
# Experiments:
# total serum testosterone = assay: Effects of Clomids on serum testosterone in male baboons; type: in vivo; conditions: 1.5 mg/kg for 12 days
# Excerpt: (§1) The samples analyzed were sera taken on the day of first treatment before being given test article (day 0), after 12 days of treatment (day 12) and 7 days after the last treatment (end or wash-out).
# serum cholesterol = assay: Effects on cholesterol levels in male baboons; type: in vivo; conditions: 1.5 mg/kg for 12 days
# Excerpt: as §1
# serum prolactin (PRL) = assay: Effects on serum prolactin (PRL) in male baboons; type: in vivo; conditions: 1.5 mg/kg for 12 days
# Excerpt: as §1
# [1] = Excerpt: as §1
# total testosterone = assay: Comparison of Androxal to Androgel in hypogonadal men: total testosterone; type: in vivo; conditions: two weeks
# Method: (§2) A placebo controlled challenge study was conducted at the Advanced Biological Research, Inc. (ABR) Clinical Research Center in Hackensack, N.J. to compare orally administered Androxal™ (trans-clomiphene) to Androgel® (testosterone) in hypogonadal men. Androgel® (Solvay Pharmaceuticals, Inc.) consists of a cream that administers exogenous testosterone in a transdermal matrix.
# (§3) The study enrolled 62 hypogonadal men with testosterone levels less than 300 ng/dl (normal 298-1034 ng/dl) that were randomized into 6 different arms, three doses of Androxal™ (12.5 mg, 25 mg, and 50 mg), placebo, and both high and low doses of Androgel®. Half of the men in each of the Androxal™ and placebo arms were randomized into cohorts that underwent in-clinic sessions on days 1 and 14 to determine pharmacokinetic parameters for Androxal™ as well as cyclical changes in testosterone. The placebo and Androxal™ doses were administered in a double blind fashion. The Androgel® cream was administered in an open label fashion. Half of the Androgel® patients underwent in-clinic sessions similar to the other patients in the study. Following the two week drug exposure patients were followed for an additional seven to ten days to determine the status of their testosterone levels.
# [2] = Comparison of Androxal to Androgel in hypogonadal men: side effects; type: in vivo; conditions: two week exposure, compared with placebo
# Method: as §2, §3
SMILES,effect on total serum testosterone (total serum testosterone),trend of serum cholesterol (serum cholesterol),serum prolactin (PRL) during the study (serum prolactin (PRL)),effect on platelets ([1]; 12-day treatment),counts of eosinophiles ([1]; male baboons),mean increase of testosterone from baseline (total testosterone; high dose 50 mg oral) [ng/dL],mean increase of testosterone from baseline (total testosterone; low dose 12.5 mg oral) [ng/dL],mean increase of testosterone from baseline (total testosterone; mid dose 25 mg oral) [ng/dL],side effects [2]
"CCN(CC)CCOc1ccc(C(=C(Cl)c2ccccc2)c2ccccc2)cc1 [Clomid, clomiphene]",more variable total testosterone levels,slight increase,,,,,,,
"CCN(CC)CCOc1ccc(/C(=C(\Cl)c2ccccc2)c2ccccc2)cc1 [Enclomid, trans-clomiphene]",significant increases,tended to decrease,decrease,clear effect,raising the counts,294,169,247,no side effects
"CCN(CC)CCOc1ccc(/C(=C(/Cl)c2ccccc2)c2ccccc2)cc1 [Zuclomid, cis-clomiphene]",did not raise total serum testosterone to any extent,tended to increase,,,,,,,
